This is an account of results in publication PMC10005301, “Prediction of the n-Octanol/Water Partition Coefficients of Basic Compounds Using Multi-Parameter QSRR Models Based on IS-RPLC Retention Behavior in a Wide pH Range” (Molecules, 2023).

Where two headings read alike, the source gives them in different places.

Data set [1] can be described thus: IS-RPLC retention on silica-based C18 column, logkw by linear solvent strength model. Format: physicochemical.
Data set [2] can be described thus: logD determined by multi-parameter QSRR models from IS-RPLC logkw. The settings on record: IS-RPLC retention (logkw).
The conditions of data set [3]: for logDpH 7.0: pH 7; for logDpH 8.0: pH 8; for logDpH 9.0: pH 9; for logDpH 10.0: pH 10.
Details of data set [4]: method as in UFZ-LSER database. The settings on record: hydrogen bonding parameter B; ref UFZ-LSER database; cited from earlier work.
For data set [5] the following is noted: ref database module of ACD/Labs software, cited from earlier work.
For data set [6] the following is noted: ref database module of ACD/Labs software, cited from earlier work; for pKa: Table 4, verification compounds.
[7] abbreviates: pH 7.0, methanol/20 mmol/L ammonium phosphate buffer, Welch Xtimate C18, 30 °C, 100% aqueous extrapolation.
The mark [8] stands for this setting: pH 8.0, methanol/20 mmol/L ammonium phosphate buffer, Welch Xtimate C18, 30 °C, 100% aqueous extrapolation.
[9] abbreviates: pH 9.0, methanol/20 mmol/L ammonium phosphate buffer, Welch Xtimate C18, 30 °C, 100% aqueous extrapolation.
Setting [10] is: pH 10.0, methanol/20 mmol/L ammonium phosphate buffer, Welch Xtimate C18, 30 °C, 100% aqueous extrapolation.
The mark [11] stands for this setting: Table 4, verification compounds.

For orientation: chromatographic logD means lipophilicity estimated from chromatographic retention. In general, logP refers to the decadic logarithm of the partition coefficient of the neutral form, usually between octanol and water. One may read the pKa as the pH at which an ionisable group is half protonated.

As to `Nc1ccc(Br)cc1` [4-Bromoaniline], the “logkw-pH 7.0” value in data set [1] (setting [7]) is 1.91. Further, the “logkw-pH 8.0” value in data set [1] (setting [8]) was 1.98. In data set [1] (setting [9]), the “logkw-pH 9.0” value is 1.99. In addition, the “logkw-pH 10.0” value in data set [1] (setting [10]) is 1.99. The chromatographic logD in data set [2] (pH 7) amounted to 1.83. Besides, the chromatographic logD in data set [2] (pH 8) is 1.81. The chromatographic logD in data set [2] (pH 9) was 1.85. For the same molecule, the chromatographic logD in data set [2] (pH 10) was found to be 1.81. For the same molecule, in data set [3], the “logDpH 7.0” value was 1.74, the “logDpH 8.0” value amounted to 1.74, the “logDpH 9.0” value amounted to 1.74 and the “logDpH 10.0” value amounted to 1.74. Besides, the B in data set [4] is on record as 1.19. Also, the logP in data set [5] (setting [11]) is recorded as 2.05. In addition, the logP in data set [5] (n-octanol/water) is given as 2.05. Besides, in data set [6], the pKa is recorded as 3.89 and the pKa1 is on record as 3.89.

As for `Cc1ccc(N)cc1` [4-Methylaniline], the “logkw-pH 7.0” value in data set [1] (pH 7) is reported as 1.50. Moreover, the “logkw-pH 8.0” value in data set [1] (pH 8) amounted to 1.53. Also, the “logkw-pH 9.0” value in data set [1] (pH 9) was 1.54. Also, the “logkw-pH 10.0” value in data set [1] (pH 10) stood at 1.58. For the same molecule, in data set [3], the “logDpH 7.0” value came out at 1.40, the “logDpH 8.0” value was 1.41, the “logDpH 9.0” value is reported as 1.41 and the “logDpH 10.0” value is recorded as 1.41. In addition, in data set [4], the B is on record as 0.94. Also, in data set [5] (n-octanol/water), the logP is 1.41. The pKa1 in data set [6] is 5.08.

Regarding `Cc1ccncc1` [4-Methylpyridine], the “logkw-pH 7.0” value in data set [1] (setting [7]) is reported as 1.40. The “logkw-pH 8.0” value in data set [1] (setting [8]) is on record as 1.41. Further, the “logkw-pH 9.0” value in data set [1] (setting [9]) is on record as 1.44. Also, in data set [1] (setting [10]), the “logkw-pH 10.0” value is on record as 1.46. Also, in data set [3], the “logDpH 7.0” value amounted to 1.29, the “logDpH 8.0” value came out at 1.33, the “logDpH 9.0” value came out at 1.33 and the “logDpH 10.0” value came to 1.33. Besides, the B in data set [4] is on record as 0.63. Also, the logP in data set [5] (n-octanol/water) was 1.33. The pKa1 in data set [6] is listed as 5.99.

As to `c1ccc(-c2ccncc2)cc1` [4-Phenylpyridine], the “logkw-pH 7.0” value in data set [1] (pH 7) was determined as 2.66. For the same molecule, the “logkw-pH 8.0” value in data set [1] (pH 8) is reported as 2.81. In data set [1] (pH 9), the “logkw-pH 9.0” value was 2.84. In addition, in data set [1] (pH 10), the “logkw-pH 10.0” value amounted to 2.80. In data set [3], the “logDpH 7.0” value amounted to 2.58, the “logDpH 8.0” value was determined as 2.59, the “logDpH 9.0” value is listed as 2.59 and the “logDpH 10.0” value turned out to be 2.59. In addition, in data set [4], the B is 1.38. For the same molecule, in data set [5] (n-octanol/water), the logP was 2.59. Besides, in data set [6], the pKa1 is reported as 5.45.

Consider `c1ccc(CNCc2ccccc2)cc1` [Dibenzylamine], for which the “logkw-pH 7.0” value in data set [1] (setting [7]) was 2.42. For the same molecule, the “logkw-pH 8.0” value in data set [1] (setting [8]) is 2.99. In addition, the “logkw-pH 9.0” value in data set [1] (setting [9]) is on record as 3.28. For the same molecule, the “logkw-pH 10.0” value in data set [1] (setting [10]) was 4.54. Moreover, the chromatographic logD in data set [2] (pH 7) was 1.52. Further, the chromatographic logD in data set [2] (pH 8) is 2.36. For the same molecule, the chromatographic logD in data set [2] (pH 9) came to 2.81. Moreover, the chromatographic logD in data set [2] (pH 10) was determined as 3. In data set [3], the “logDpH 7.0” value is given as 1.26, the “logDpH 8.0” value came out at 2.20, the “logDpH 9.0” value amounted to 2.83 and the “logDpH 10.0” value came out at 3.01. Further, in data set [4], the B is listed as 1.30. In addition, the logP in data set [5] (setting [11]) is on record as 3.03. In data set [5] (n-octanol/water), the logP was 3.03. In data set [6], the pKa was 8.76 and the pKa1 is 8.76.

In the case of `CCN(CC)c1ccccc1` [N, N-Diethylaniline], the “logkw-pH 7.0” value in data set [1] (pH 7) came out at 3.20. The “logkw-pH 8.0” value in data set [1] (pH 8) was found to be 3.44. The “logkw-pH 9.0” value in data set [1] (pH 9) was found to be 3.47. In addition, the “logkw-pH 10.0” value in data set [1] (pH 10) was 3.54. Further, in data set [3], the “logDpH 7.0” value was 3.17, the “logDpH 8.0” value is reported as 3.29, the “logDpH 9.0” value was 3.31 and the “logDpH 10.0” value was determined as 3.31. Also, the B in data set [4] is reported as 0.95. In data set [5] (n-octanol/water), the logP is on record as 3.31. In data set [6], the pKa1 is 6.57.
